Experimental data reported in PubChem BioAssay (NCI).
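Dose response: 5 concentrations. Exposure: 48 h. Format: 96-well plates. Endpoint: linear interpolation; highest concentration if not reached. TGI: total growth inhibition.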

Experiments:
Test in all cases: NCI anticancer screen, dose series, 48 h
[1] = test system: 786-0 renal
[2] = test system: A549 NSCLC
[3] = test system: ACHN renal
[4] = test system: CAKI-1 renal
[5] = test system: CCRF-CEM leukemia
[6] = test system: COLO 205 colon
[7] = test system: DLD-1 colon
[8] = test system: DMS 273 small cell lung
[9] = test system: EKVX NSCLC
[10] = test system: HCC-2998 colon
[11] = test system: HCT-116 colon
[12] = test system: HCT-15 colon
[13] = test system: HL-60(TB) leukemia
[14] = test system: HOP-18 NSCLC
[15] = test system: HOP-62 NSCLC
[16] = test system: HOP-92 NSCLC
[17] = test system: HT29 colon
[18] = test system: IGROV1 ovarian
[19] = test system: K-562 leukemia
[20] = test system: KM12 colon
[21] = test system: KM20L2 colon
[22] = test system: LOX IMVI melanoma
[23] = test system: LXFL 529 NSCLC
[24] = test system: M14 melanoma
[25] = test system: M19-MEL melanoma
[26] = test system: MALME-3M melanoma
[27] = test system: MOLT-4 leukemia
[28] = test system: NCI-H226 lung
[29] = test system: NCI-H460 lung
[30] = test system: OVCAR-3 ovarian
[31] = test system: OVCAR-4 ovarian
[32] = test system: OVCAR-5 ovarian
[33] = test system: OVCAR-8 ovarian
[34] = test system: RPMI-8226 leukemia
[35] = test system: RXF 393 renal
[36] = test system: RXF-631 renal
[37] = test system: SF-295 CNS
[38] = test system: SK-MEL-2 melanoma
[39] = test system: SK-MEL-28 melanoma
[40] = test system: SK-MEL-5 melanoma
[41] = test system: SK-OV-3 ovarian
[42] = test system: SN12C renal
[43] = test system: SNB-75 CNS
[44] = test system: SNB-78 CNS
[45] = test system: SW-620 colon
[46] = test system: TK-10 renal
[47] = test system: U251 CNS
[48] = test system: UACC-257 melanoma
[49] = test system: UACC-62 melanoma
[50] = test system: UO-31 renal
[51] = test system: XF 498 CNS
[52] = test system: A498 renal
[53] = test system: DMS 114 small cell lung
[54] = test system: NCI-H23 lung
[55] = test system: NCI-H522 lung
[56] = test system: SF-268 CNS
[57] = test system: SF-539 CNS
[58] = test system: SNB-19 CNS
[59] = test system: SR leukemia

Structure (SMILES): N#Cc1c(-c2ccc(Cl)c(Cl)c2)c(-c2ccc(Cl)c(Cl)c2)nn(CC(=O)O)c1=O
- TGI [1]: > 100 µM
- TGI [2]: > 100 µM
- TGI [3]: > 100 µM
- TGI [4]: > 100 µM
- TGI [5]: > 100 µM
- TGI [6]: > 100 µM
- TGI [7]: > 100 µM
- TGI [8]: > 100 µM
- TGI [9]: > 100 µM
- TGI [10]: > 100 µM
- TGI [11]: > 100 µM
- TGI [12]: > 100 µM
- TGI [13]: > 100 µM
- TGI [14]: > 100 µM
- TGI [15]: > 100 µM
- TGI [16]: > 100 µM
- TGI [17]: > 100 µM
- TGI [18]: > 100 µM
- TGI [19]: > 100 µM
- TGI [20]: > 100 µM
- TGI [21]: 56.8 µM
- TGI [22]: > 100 µM
- TGI [23]: > 100 µM
- TGI [24]: > 100 µM
- TGI [25]: > 100 µM
- TGI [26]: > 100 µM
- TGI [27]: > 100 µM
- TGI [28]: > 100 µM
- TGI [29]: > 100 µM
- TGI [30]: 77.4 µM
- TGI [31]: > 100 µM
- TGI [32]: > 100 µM
- TGI [33]: > 100 µM
- TGI [34]: > 100 µM
- TGI [35]: 53.9 µM
- TGI [36]: > 100 µM
- TGI [37]: > 100 µM
- TGI [38]: > 100 µM
- TGI [39]: > 100 µM
- TGI [40]: > 100 µM
- TGI [41]: > 100 µM
- TGI [42]: > 100 µM
- TGI [43]: > 100 µM
- TGI [44]: > 100 µM
- TGI [45]: > 100 µM
- TGI [46]: > 100 µM
- TGI [47]: > 100 µM
- TGI [48]: > 100 µM
- TGI [49]: > 100 µM
- TGI [50]: > 100 µM
- TGI [51]: 98.4 µM

Structure (SMILES): CN(C)C=Nc1ccn(CCO)c(=O)n1
- TGI [1]: > 100 µM
- TGI [52]: > 100 µM
- TGI [2]: > 100 µM
- TGI [3]: > 100 µM
- TGI [5]: > 100 µM
- TGI [6]: > 100 µM
- TGI [7]: > 100 µM
- TGI [53]: > 100 µM
- TGI [8]: > 100 µM
- TGI [9]: > 100 µM
- TGI [10]: > 100 µM
- TGI [11]: > 100 µM
- TGI [12]: > 100 µM
- TGI [13]: > 100 µM
- TGI [14]: > 100 µM
- TGI [15]: > 100 µM
- TGI [17]: > 100 µM
- TGI [18]: > 100 µM
- TGI [19]: > 100 µM
- TGI [20]: > 100 µM
- TGI [21]: > 100 µM
- TGI [22]: > 100 µM
- TGI [23]: > 100 µM
- TGI [24]: > 100 µM
- TGI [25]: > 100 µM
- TGI [26]: > 100 µM
- TGI [27]: > 100 µM
- TGI [28]: > 100 µM
- TGI [54]: > 100 µM
- TGI [29]: > 100 µM
- TGI [55]: > 100 µM
- TGI [30]: > 100 µM
- TGI [31]: > 100 µM
- TGI [32]: > 100 µM
- TGI [33]: > 100 µM
- TGI [35]: > 100 µM
- TGI [36]: > 100 µM
- TGI [56]: > 100 µM
- TGI [57]: > 100 µM
- TGI [38]: > 100 µM
- TGI [39]: > 100 µM
- TGI [40]: > 100 µM
- TGI [41]: > 100 µM
- TGI [42]: > 100 µM
- TGI [58]: > 100 µM
- TGI [43]: > 100 µM
- TGI [44]: > 100 µM
- TGI [59]: > 100 µM
- TGI [45]: > 100 µM
- TGI [46]: > 100 µM
- TGI [47]: > 100 µM
- TGI [48]: > 100 µM
- TGI [49]: > 100 µM
- TGI [50]: > 100 µM
